Source: patent US20250179024A1, “AMYLOID AND ASSOCIATED PATHOLOGY MODULATORS AND METHODS THEREOF” (Jawaharlal Nehru Centre for Advanced Scientific Research, priority 2022, published 2025)

Tests used:
Aβ oligomers = target: T1, Aβ oligomers (Homo sapiens, UniProt P05067); test: Dot blot assay of Aβ oligomer inhibition (A11 antibody); format: biochemical; settings: Aβ 10 μM, NMIs 20 μM, 4° C., 24 h
T1 construct: is a 42 amino acid proteolytic product from the amyloid precursor protein; purchased Invitrogen
T1 sequence (P05067 672-713 limits assumed): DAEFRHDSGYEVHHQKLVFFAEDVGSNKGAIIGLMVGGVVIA
Experimental: Aggregation modulation by toxic Aβ aggregates were assessed and were quantified by dot blot assay. Aβ peptide (10 μM) was dissolved in phosphate buffered saline (PBS, 10 mM, pH 7.4), incubated alone and with NMIs (20 μM) at 37° C. for 48 h. For concentration dependent inhibition, 10 μM Aβ peptide was incubated with 1, 2, 5, 10 and 20 μM of NMIs and incubated. Samples for oligomer inhibition studies were prepared by incubating Aβ alone and with NMIs at 4° C. for 24 and subjected to dot blot analysis. For dissolution studies, Aβ peptide alone was incubated in PBS for 48 h to prepare fibrils and then incubated with NMIs further for 48 h. For dot blot experiment, 5 μL of sample was blotted on activated PVDF (polyvinylidene fluoride) membrane in triplicates and air dried. The membrane was blocked with skimmed milk powder for 1 h at room temperature. The blot paper was washed with tris-buffered saline with 0.01% Tween 20 (TBST) three times for 5 min. Blot paper was treated with fibril specific OC primary antibody (Rabbit, 1:1000 dilution) overnight at 4° C. For oligomers blot A11 anti-oligomer antibody (Rabbit 1:1000) was used. […] Blots were analyzed and quantified by ImageJ software. […] The ability of NMIs (M3) to inhibit the formation of Aβ oligomers was assessed by dot blot assay. […]

[1] = target: T2, Aβ in the presence of Zn (II) (Homo sapiens, UniProt P05067); test: Zn-dependent Aβ aggregation, native PAGE and western blot; format: biochemical; settings: Aβ 10 μM, Zn (II) 20 μM, NMIs 20 μM, 37° C., 48 h
T2 construct: is a 42 amino acid proteolytic product from the amyloid precursor protein; purchased Invitrogen
T2 sequence (P05067 672-713 limits assumed): as above
Experimental: The samples were prepared by incubating Aβ42 with specific concentration of NMI compounds of present disclosure and metal ions for 48 h and then subjected to 6% native polyacrylamide gel electrophoresis (Native-PAGE) in tris-glycine buffer. The lower molecular weight aggregates permeabilized through the gel and resolved in the gel. Higher molecular aggregates stuck in the upper part of wells and potentially carried in gel. Then the protein was transferred to PVDF membrane for 4 h at cold condition maintained using ice cold transfer buffer and immersing the transfer apparatus in ice. Then the blots were continued similar to dot blots.
The absorbance and fluorescence spectroscopy studies together with mass spectrometry data confirmed the selective Cu (II) or Zn (II) chelation property of M1 and M3. […] Aβ (10 μM) was incubated in the presence of Cu (II) or Zn (II) (20 μM) with NMIs at 37° C. for 48 h and the samples were subjected to native PAGE and western blot analysis. […] Modulation of Zn-dependent Aβ aggregation by M4 was attributed to its two Zn (II) chelation centres. M3 with dopamine and DPA moieties effectively modulated both Cu (II) and Zn (II)-dependent Aβ aggregation. The effect of NMIs on the morphological outcome of metal-dependent Aβ aggregation was visualized by AFM imaging (FIGS. 1E and 1F). Aβ in the presence of Cu (II) and Zn (II) formed dense and thick fibrils.

SH-SY5Y cells [2] = test: MTT cytotoxicity assay; format: cell-based; settings: 24 h, up to 200 μM
Experimental: The SH-SY5Y cells were seeded onto 96 well plates at cell density of 25,000 cells per well and incubated. After 24 h cells were treated with different concentration of compounds (10, 20, 50, 100 and 200 μM) and incubated. After 24 h MTT (5 mg/mL) was added to the cells and incubated for 3 h, removed media and DMSO/Methanol (1:1) solution added to dissolve formazan crystals. The absorbance was recorded at 570 nm and the percentage cell viability was calculated with respect to control cells treated with vehicle (DMSO).
NMIs modulated metal-independent and dependent Aβ aggregation, reduced ROS in vitro and in cellulo, and rescue cells from oxidative stress. The biocompatibility, the cytotoxicity of compounds of the present disclosure to neuronal cells were evaluated by MTT assay. SH-SY5Y cells were treated with different concentrations of modulators (NMIs) for 24 h and performed MTT assay to determine the cell viability.

SH-SY5Y cells [3] = test: Apoptosis assay by nuclear staining and morphology; format: cell-based; settings: Aβ 10 μM, compound 20 µM, 24 h
Experimental: The apoptosis induced by Aβ and rescue by NMIs (M3) was assessed through nuclear staining and morphology analysis. Apoptosis induces DNA damage and morphological change in the nucleus. Based on the nuclear features the extent of apoptosis was assessed as percentage apoptotic cells. SH-SY5Y cells were cultured and treated with Aβ (10 μM) and with NMIs (M3) (20 μM) to quantify the apoptosis and rescue by NMIs (M3). After 24 h the cells were washed with PBS and fixed with 4% paraformaldehyde and then with PBS for 5 min thrice and the nucleus was stained with DAPI (1 μM) for 10 min, washed thrice with PBS and imaged using fluorescence microscope to visualize the nuclear morphology. […] Total of more than 300 cells were counted to calculated the percentage of apoptosis.
Modulation of apoptosis by M3 was quantified by apoptosis assay through nuclear staining and morphological analysis. Apoptotic signals induced nuclear DNA damage show abnormal nuclear features, which has been used to evaluate and quantify the extent of apoptosis. Neuronal cells treated with Aβ (10 μM) alone and with […] for 24 h were stained for the nucleus and analysed for apoptotic morphological features.

SH-SY5Y cells [4] = test: Imaging of mitochondrial structural changes, Mito-TG; format: cell-based; settings: Aβ 20 μM, 18 h, Mito-TG staining
Experimental: The effect of NMIs (M3) on Aβ induced structural damage to mitochondria was assessed and Mito-TG probe was used for imaging mitochondria. SH-SY5Y cells were seeded onto confocal dishes and incubated for 24 h. Then cells were treated with Aβ (20 μM) alone and with M3 (50 μM) and incubated for […]. Followed by PBS washing, and stained with Mito-TG (250 nM) for 20 min. Cells were washed thrice with dPBS and imaged in live cell set up in rhodamine channel using 63× oil immersion using Leica DMi8 fluorescence microscope.
Aβ-associated functional abnormalities induced structural defects in mitochondria. The effect of M3 to prevent structural damage was assessed by staining the cells with Mito-TG, a mitochondrial probe. The cells were treated with Aβ (20 μM) alone and with M3 for 18 h, followed by Mito-TG staining and fluorescence microscopic imaging to visualize the structural changes. The Aβ treatment deformed mitochondria with fragmented morphology in comparison to the long tubular structure of healthy cells (FIG. 14C). […] Collectively, these structural and functional studies of mitochondria confirmed that M3 is a potential modulator of Aβ-induced toxicity to protect mitochondrial damage.

**Q.** How did the oligomer inhibition (Aβ oligomers) turn out when `CN(C)c1ccc2c3c(cccc13)C(=O)N(CCc1ccc(O)c(O)c1)C2=O` [M1, 2-(3,4-dihydroxyphenethyl)-6-(dimethylamino)-1H-benzo[de]isoquinoline-1,3(2H)-dione] was run?
**A.** 33%

**Q.** How did the “Zn-dependent Aβ aggregation” value [1] turn out when `O=C1c2cccc3c(N(Cc4ccccn4)Cc4ccccn4)ccc(c23)C(=O)N1CCc1ccc(O)c(O)c1` [M3, 6-(bis(pyridin-2-ylmethyl)amino)-2-(3,4-dihydroxyphenethyl)-1H-benzo[de]isoquinoline-1,3(2H)-dione] was run?
**A.** reduce Zn-dependent Aβ aggregation

**Q.** And the cytotoxicity (SH-SY5Y cells [2])?
**A.** minimal toxicity

**Q.** And the nuclear morphology (SH-SY5Y cells [3]; DAPI)?
**A.** normal nuclear structures

**Q.** And the “apoptosis of neuronal cells” value (SH-SY5Y cells [3]; Aβ alone ~35%, control ~8.5%)?
**A.** 22.5%

**Q.** What about the mitochondrial structure (SH-SY5Y cells [4]) of the same molecule?
**A.** protected normal long tubular structures
